We go through two compounds from patent US20080153827A1, “Method for the Treatment or Prevention of Cardiac Hypertrophy” (priority 2004, published 2008).

What all share (type): in vivo, rat
The subject of assay [1] is Dahl salt-sensitive rats (SS/JrHsd) on high salt diet. Nature of the assay: Systolic blood pressure by tail cuff in Dahl salt-sensitive rats. Particulars: data not shown. On the procedure: (§1) 6-week-old male Dahl salt-sensitive rats (SS/JrHsd) received the following diet and drug regimens for 7 weeks: 1) Dahl SS controls on high salt diet, 2) Dahl SS rats on high salt diet+high-dose levosimendan (10 mg/l of levosimendan in drinking water), 3) Dahl SS rats on high salt diet+low-dose levosimendan (1 mg/l of levosimendan in drinking water) and 4) Dahl SS controls on low salt diet. High salt diet was produced by adding NaCl to commercial low salt diet. The consumption of drinking water and food as well as the body weight and general health of the animals were monitored. Systolic blood pressure was measured by using a tail cuff blood pressure at week 3.5 and week 7. At the end the study the hearts was excised, washed with ice-cold saline, blotted dry and weighed.

Assay [2] has the same test system. The experiment in a line: Echocardiography: interventricular septum (IVS) wall thickness. Conditions: 3.5 weeks, FIG. 4. On the procedure:
6-week-old male Dahl salt-sensitive rats (SS/JrHsd) received the following diet and drug regimens: Dahl salt-sensitive rats on low salt diet (1), on high salt diet (2), on high salt diet treated with 10 mg/l of levosimendan in drinking water (3), on high salt diet treated with 1 mg/l of levosimendan in drinking water (4) and on high salt diet treated with 0.5 mg/kg of the active metabolite (II) (OR-1896) of levosimendan in drinking water (5). High salt diet was produced by adding NaCl to commercial low salt diet. After 3.5 weeks transthoracic echocardiography was performed using a Toshiba Ultrasound System and a 15 MHz linear transducer under light isoflurane anesthesia. Using two-dimensional imaging, a short axis view of the left ventricle at the level of the papillary muscles was obtained and the two-dimensionally guided M-mode recording through the anterior and posterior walls of the left ventricle was obtained.

For assay [3], the system named is atrial natriuretic peptide (ANP) mRNA. The experiment in a line: Myocardial atrial natriuretic peptide (ANP) mRNA expression by quantitative real time PCR. Conditions: high dose (10 mg/l in drinking water), 7 weeks, high salt diet; FIG. 3. The protocol: as §1, with “At the end the study the hearts was excised, washed with ice-cold saline, blotted dry and weighed.” left out
Total RNA from the rat hearts were collected, treated with DNAse 1 and reverse transcribed to cDNA by incubation of 50 min in 45° C. with presence of reverse transcription enzyme (Enhanced avian HS RT-PCR kit, Sigma Chemicals Co.). 1 μl of cDNA was subjected to a quantitative real time polymerase chain reaction by Lightcycler instrument (Roche Diagnostics) for detection of ANP and GAPDH mRNAs. […] After amplification the quality of PCR products were analyzed with the melting step consisting of heating to 95° C., cooling to annealing temperature for 15 seconds, and finally a slow rise in temperature to 95° C. with a continuous acquisition of fluorescence decline. […]
On the technique in general: Real-time PCR tracks product formation cycle by cycle.

The test system of assay [4] is Dahl salt-sensitive rats (SS/JrHsd) on high salt diet. The experiment in a line: Heart weight/body weight ratio in Dahl salt-sensitive rats on high salt diet. Conditions: both doses (10 mg/l and 1 mg/l in drinking water), 7 weeks, FIG. 1. On the procedure: as §1
Assay [5] concerns Myocardial SERCA2 and NCX expressions. Nature of the assay: Myocardial SERCA2/NCX protein ratio by Western blot. Particulars: both doses (10 mg/l and 1 mg/l in drinking water), 7 weeks, high salt diet; FIG. 2. The protocol:
as §1
Myocardial SERCA2 and NCX expressions were determined by Western blot analysis using standard procedure. Myocardial samples were homogenized in extraction buffer and protease inhibitor. Myocardial samples (15 μg protein per lane) were electrophoretically separated by SDS-PAGE (8% Acryl amide). The proteins were transferred to a PVDF membrane by semi-dry blotting in electrophoresis device. […] The films were scanned in a densitometer and a semi-quantitative measurement of the relative intensity of each protein band was performed using the “GeneSnap”-software program.
(Immunoblotting shows a protein as a band on a membrane.)

With `CC1CC(=O)NN=C1c1ccc(NN=C(C#N)C#N)cc1` (single isomer, unassigned; (-)) [Levosimendan, (−)-enantiomer of [[4-(1,4,5,6-tetrahydro-4-methyl-6-oxo-3-pyridazinyl)phenyl]hydrazono]propanedinitrile], the figures for the blood pressure result in assay [1] (high-dose (10 mg/l in drinking water)) and in assay [1] (low-dose (1 mg/l in drinking water)) were “produced a transient decrease in blood pressure” and “did not influence blood pressure”, respectively. Also, the “Interventricular septum (IVS) wall thickness” value in assay [2] (10 mg/l and 1 mg/l in drinking water) is recorded as “significantly reduce the increased heart wall thickness”. Further, the “myocardial ANP mRNA expression” value in assay [3] is listed as “decrease ANP mRNA expression to levels found in low salt diet controls”. In addition, the “development of cardiac hypertrophy measured as heart weight-to-body weight-ratio” value in assay [4] is “equally prevented the development of cardiac hypertrophy”. Moreover, the “myocardial SERCA2-to-NCX-ratio” value in assay [5] is given as “increased SERCA2-to-NCX-ratio in the heart”.

As to `CC(=O)Nc1ccc(C2=NNC(=O)C[C@H]2C)cc1` [active metabolite (II), (R)-N-[4-(1,4,5,6-tetrahydro-4-methyl-6-oxo-3-pyridazinyl)phenyl]acetamide], the “Interventricular septum (IVS) wall thickness” value in assay [2] (0.5 mg/kg in drinking water) is given as “significantly reduce the increased heart wall thickness”.
